# Read-outs that look alike come from different tables or passages of the source.
# Experiments:
# SMOV2 (A) = assay: SRB proliferation assay, SMOV2 (PPM1D amplified); format: cell-based; conditions: Homo sapiens, SMOV2, PP1MD amplified cell line (A)
# Description: (§1) All cell lines were obtained from ATCC except KPL1 which was obtained from Leibniz Institute DSMZ-German Collection of Microorganisms and Cell Cultures, and SMOV2 which was obtained from Dr. Hiroaki Itamochi (Tottori University School of Medicine, Yonago, Japan; see also: ‘Establishment and characterization of human ovarian clear cell adenocarcinoma cell line (SMOV-2), and its cytotoxity by anticancer agents’, Yonamine K at al., Hum Cell., 1999, 12(3), 139-48; and ‘PPM1D Is a Potential Therapeutic Target in Ovarian Clear Cell Carcinoma’, David S. P. Tan et al., Clin Cancer Res, 2009, 15, 2269).
# (§2) Representative compounds were assessed in a sulforhodamine B (SRB) proliferation assay in the cell lines shown in the Tables below, according to the following general procedure:
# (§3) Cells were seeded in a 96 well plate at a number optimized for each cell line as known in the art; for example as described in Viachai et al, Nature Protocols, 2006, 1 1112-1116. Two fold dilutions of the compounds to be tested were made in culture medium so that, when diluted 5×, the final concentration in the wells was from 50 μM to 0.000191 μM (19 concentrations). A day after seeding the cells in 96 well plates, 25 μl of the compound diluted in the culture medium was added to 100 μl of the cells and incubated at 37° C. and 5% CO2 for 3 or 5 more days as required. After this time, cells were fixed by adding 10% ice cold TCA (in H2O) to 3% final concentration in the wells and by incubating at 4° C. for at least 2 h. Plates were washed 4 times in H2O and allowed to dry in the air. Added 100 μl of 0.057% SRB solution to the dried plates and incubated at room temperature for at least 30 min. Removed SRB solution from the plates and washed four times with 1% acetic acid. Plates were left overnight to dry in the air followed by addition of 100 μl of 10 mM Tris pH 10.5 to each well of the dried plates and incubation on a shaker for 5 min to solubilize the SRB. Optical density was measured at wave length of 490 nm using a plate reader and analysis performed to measure the GI50 using GraphPad PRISM.
# TOV21G (NA) = assay: SRB proliferation assay, TOV21G (non-amplified control); format: cell-based; conditions: 5-day incubation, control not amplified (NA)
# Description: as §1, §2, §3
# [1] = 72 h, 3-day incubation, read-out: GI50 3-day SMOV2 (A) SRB
# [2] = 120 h, 5-day incubation, read-out: GI50 5-day SMOV2 (A) SRB
Compound,GI50 (SMOV2 (A); [1]) [nM],GI50 (SMOV2 (A); [2]) [nM],"GI50 (TOV21G (NA); Homo sapiens, 120 h) [µM]",GI50 (TOV21G (NA)) [µM]
"O=c1[nH]c2ccc(-c3csc(-c4ccc(F)cc4)n3)cc2o1 [Compound 1, 6-(2-(4-fluorophenyl)thiazol-4-yl)benzo[d]oxazol-2(3H)-one]",9,1.1,> 10,
"Cc1cc(F)ccc1-c1nc(-c2ccc3[nH]c(=O)oc3c2)cs1 [Compound 2, 6-(2-(4-fluoro-2-methylphenyl)thiazol-4-yl)benzo[d]oxazol-2(3H)-one]",1.6,0.5,> 10,
"Cc1cc(F)ccc1-c1nc(-c2ccc3c(c2)CC(=O)N3)cs1 [Compound 3, 5-(2-(4-fluoro-2-methylphenyl)thiazol-4-yl)indolin-2-one]",1.2,0.5,> 10,
"Cc1cc(F)ccc1-c1nc(-c2ccc3[nH]c(=O)[nH]c3c2)cs1 [Compound 4, 5-(2-(4-fluoro-2-methylphenyl)thiazol-4-yl)-1H-benzo[d]imidazol-2(3H)-one]",0.2,0.1,> 10,
"CCc1cc(F)ccc1-c1nc(-c2ccc3[nH]c(=O)oc3c2)cs1 [Compound 5, 6-(2-(2-ethyl-4-fluorophenyl)thiazol-4-yl)benzo[d]oxazol-2(3H)-one]",13,9.7,> 10,
"O=c1[nH]c2ccc(-c3csc(-c4ccc(F)cc4C4CC4)n3)cc2o1 [Compound 6, 6-(2-(2-cyclopropyl-4-fluorophenyl)thiazol-4-yl)benzo[d]oxazol-2(3H)-one]",200,,,
"C=CCc1cc(F)ccc1-c1nc(-c2ccc3[nH]c(=O)oc3c2)cs1 [Compound 7, 6-(2-(2-allyl-4-fluorophenyl)thiazol-4-yl)benzo[d]oxazol-2(3H)-one]",77,,,
"O=c1[nH]c2ccc(-c3csc(-c4ccc(F)cc4CO)n3)cc2o1 [Compound 8, 6-(2-(4-fluoro-2-(hydroxymethyl)phenyl)thiazol-4-yl)benzo[d]oxazol-2(3H)-one]",23,0.1,9.2,
"O=c1[nH]c2ccc(-c3csc(-c4ccc(F)cc4CCO)n3)cc2o1 [Compound 9, 6-(2-(4-fluoro-2-(2-hydroxyethyl)phenyl)thiazol-4-yl)benzo[d]oxazol-2(3H)-one]",7,0.6,> 10,
"O=c1[nH]c2ccc(-c3csc(-c4ccc(F)cc4COCc4ccccc4)n3)cc2o1 [Compound 10, 6-(2-(2-((benzyloxy)methyl)-4-fluorophenyl)thiazol-4-yl)benzo[d]oxazol-2(3H)-one]",300,,,
"O=c1[nH]c2ccc(-c3csc(-c4ccc(F)cc4F)n3)cc2o1 [Compound 11, 6-(2-(2,4-difluorophenyl)thiazol-4-yl)benzo[d]oxazol-2(3H)-one]",7,0.75,> 10,
"O=c1[nH]c2ccc(-c3csc(-c4ccc(F)cc4CF)n3)cc2o1 [Compound 12, 6-(2-(4-fluoro-2-(fluoromethyl)phenyl)thiazol-4-yl)benzo[d]oxazol-2(3H)-one]",2,0.3,5.2,
"CNCc1cc(F)ccc1-c1nc(-c2ccc3[nH]c(=O)oc3c2)cs1 [Compound 13, 6-(2-(4-fluoro-2-((methylamino)methyl)phenyl)thiazol-4-yl)benzo[d]oxazol-2(3H)-one]",32,6,1.6,
"CN(C)Cc1cc(F)ccc1-c1nc(-c2ccc3[nH]c(=O)oc3c2)cs1 [Compound 14, 6-(2-(2-((dimethylamino)methyl)-4-fluorophenyl)thiazol-4-yl)benzo[d]oxazol-2(3H)-one]",10,2,1.6,
"O=c1[nH]c2ccc(-c3csc(-c4ccc(F)cc4CN4CCOCC4)n3)cc2o1 [Compound 15, 6-(2-(4-fluoro-2-(morpholinomethyl)phenyl)thiazol-4-yl)benzo[d]oxazol-2(3H)-one]",520,,,
"CN(C)CCc1cc(F)ccc1-c1nc(-c2ccc3[nH]c(=O)oc3c2)cs1 [Compound 16, 6-(2-(2-(2-(dimethylamino)ethyl)-4-fluorophenyl)thiazol-4-yl)benzo[d]oxazol-2(3H)-one]",40,6,9.2,
"COCCOCc1cc(F)ccc1-c1nc(-c2ccc3[nH]c(=O)oc3c2)cs1 [Compound 17, 6-(2-(4-fluoro-2-((2-methoxyethoxy)methyl)phenyl)thiazol-4-yl)benzo[d]oxazol-2(3H)-one]",1.2,0.1,9.4,
"O=c1[nH]c2ccc(-c3csc(-c4ccc(F)cc4COCCO)n3)cc2o1 [Compound 18, 6-(2-(4-fluoro-2-((2-hydroxyethoxy)methyl)phenyl)thiazol-4-yl)benzo[d]oxazol-2(3H)-one]",1.7,0.9,9.5,
"NCCOCc1cc(F)ccc1-c1nc(-c2ccc3[nH]c(=O)oc3c2)cs1 [Compound 19, 6-(2-(2-((2-aminoethoxy)methyl)-4-fluorophenyl)thiazol-4-yl)benzo[d]oxazol-2(3H)-one]",1.4,5,1.2,1.7
"O=c1[nH]c2ccc(-c3csc(-c4ccc(F)cc4COCCN4CCCC4)n3)cc2o1 [Compound 20, 6-(2-(4-fluoro-2-((2-(pyrrolidin-1-yl)ethoxy)methyl)phenyl)thiazol-4-yl)benzo[d]oxazol-2(3H)-one]",13,11,1.5,
"Cc1cc(F)ccc1-c1nc(-c2ccc3[nH]c(=O)n(CCN(C)C)c3c2)cs1 [Compound 21, 1-(2-(dimethylamino)ethyl)-6-(2-(4-fluoro-2-methylphenyl)thiazol-4-yl)-1H-benzo[d]imidazol-2(3H)-one]",8,0.1,7.2,
"Cc1cc(-c2nc(-c3ccc4[nH]c(=O)oc4c3)cs2)ccc1F [Compound 23, 6-(2-(4-fluoro-3-methylphenyl)thiazol-4-yl)benzo[d]oxazol-2(3H)-one]",250,,,
"O=c1[nH]c2ccc(-c3csc(-c4ccc(F)c(F)c4)n3)cc2o1 [Compound 24, 6-(2-(3,4-difluorophenyl)thiazol-4-yl)benzo[d]oxazol-2(3H)-one]",290,,,
"Cc1cc(F)cc(C)c1-c1nc(-c2ccc3[nH]c(=O)oc3c2)cs1 [Compound 25, 6-(2-(4-fluoro-2,6-dimethylphenyl)thiazol-4-yl)benzo[d]oxazol-2(3H)-one]",500,,,
"Cc1c(F)ccc(-c2nc(-c3ccc4[nH]c(=O)oc4c3)cs2)c1F [Compound 26, 6-(2-(2,4-difluoro-3-methylphenyl)thiazol-4-yl)benzo[d]oxazol-2(3H)-one]",> 10000,,,
"O=C1Cc2cc(-c3csc(-c4ccc(F)cc4)n3)c(Cl)cc2N1 [Compound 28, 6-chloro-5-(2-(4-fluorophenyl)thiazol-4-yl)indolin-2-one]",93,,,
"O=C1Cc2cc(-c3csc(-c4ccc(F)cc4F)n3)c(Cl)cc2N1 [Compound 29, 6-chloro-5-(2-(2,4-difluorophenyl)thiazol-4-yl)indolin-2-one]",1900,,,
"Cc1cc(F)ccc1-c1cccc(-c2ccc3[nH]c(=O)oc3c2)n1 [Compound 31, 6-(6-(4-fluoro-2-methylphenyl)pyridin-2-yl)benzo[d]oxazol-2(3H)-one]",> 10000,,,

# — patent US9550764B2, “Fused heterocyclic compounds and their use” (The Institute of Cancer Research: Royal Cancer Hospital, priority 2012, dated 2017)
